Source: patent US12495801B2, “Bacillus subtilis JCK-1398 strain inducing resistance in various plants, and composition and method for controlling pine wilt disease by using same” (Republic of Korea (National institute of forest science), priority 2020, dated 2025)

Key:
Format in all cases: in vivo
[1] = tested on: Xanthomonas euvesicatoria; assay: Control effect against bacterial spot on chili pepper plants; details: control agrochemical, 1,000-fold diluted solution
Experimental: To 500-fold and 5,000-fold diluted solutions of a spray-dried powder of the JCK-1398 strain prepared by the same method as in Example 8 were added the surfactant Tween® 20 (250 μg/ml), and then 8- to 9-leaf stage chili pepper plants (Hungnong Seed, Bultap chili pepper) were treated with the resultant solutions at 20 ml per pot by soil drenching and foliar spraying. Each sample was applied 4 days before inoculation with Xanthomonas euvesicatoria inoculum. As for a control group, the synthetic agrochemical pesticides Sungbocycline wettable powder (oxytetracycline, SUNGBO Chemicals) and Ilpum wettable powder (oxolinic acid 20% WP, Dongbang Agro) each were applied at a predetermined amount (1,000-fold diluted solution), and as for an untreated group, only Tween® 20 (250 μg/ml) was applied in the same manner without chemical agents.
Then, Xanthomonas euvesicatoria was subjected to static culture in TSA at 30° C. for about 48 hours, and then the cells were harvested using 2 ml of sterile water. The inoculum was prepared by diluting the harvested Xanthomonas euvesicatoria to an optical density value of 0.1 at 600 nm through a UV spectrometer. […]
Each treatment was repeated three times, and each experiment was repeated twice. The disease severity was determined using an index of 0 to 6 according to Abbasi, and thus the severity of bacterial spot formed on chili pepper leaves was investigated. […]

[2] = tested on: Bursaphelenchus xylophilus; assay: Pine wilt disease seedling test of aerial spraying formulations (Example 11); details: EB control group; 40 days after inoculation
Experimental: In order to investigate the control effects of the Bacillus subtilis JCK-1398 strain against pine wilt disease through aerial spraying in adult trees, a novel formulation was prepared. The JCK-1398 10% SC formulation was formulated with a composition of a spray-dried powder of JCK-1398 (10.0%), CR-NF 135B (3.0%), xanthan gum (0.01%), a defoamer (0.1%), propylene glycol (5.0%), sodium benzoate (0.2%), and water (81.69%).
The JCK-1398 10% SC formulation and the JCK-1398 20% SC formulation (existing formulation, Example 9) each were prepared into 10-fold, 100-fold, and 500-fold diluted solutions, and each pine tree aged 3 years was foliar-sprayed with 100 μl ( 1/50 of the existing treatment amount) of each of the diluted solutions twice at an interval of 7 days, 2 weeks and 1 week before inoculation. Last, the inoculation with Bursaphelenchus xylophilus was performed 7 days after the second treatment with the diluted solution by the same method as in Example 4-4, and the degree of wilting was determined 40 days after the inoculation with Bursaphelenchus xylophilus.

[3] = tested on: Bursaphelenchus xylophilus; assay: Pine wilt disease control by culture, culture filtrate and cell fraction (Example 6); details: samples at OD 0.8, 5 ml foliar spray; EB 20 mg/ml by trunk injection
Experimental: The JCK-1398 strain was cultured by the same method as in Example 4-1 and adjusted to an optical density value of 0.8.
The culture of the JCK-1398 strain was separated into a culture filtrate and a cell fraction by centrifugation (1,300 rpm, 15 min). The precipitated cell fraction was suspended by addition of the same volume of phosphate-buffered saline used before centrifugation. Each pine tree was sufficiently pre-treated with 5 ml of Tween® 20 (250 μg/ml) and then dried for 2 hours, so as to enable each sample (a culture, a culture filtrate, and a cell fraction) to be well adsorbed into leaves. Then, each of the culture, culture filtrate, and cell fraction was dissolved in an aqueous solution containing Tween® 20 (250 μg/ml) to an optical density value of 0.8, and then placed in a fine sprayer and each pine tree was foliar-sprayed with 5 ml of each sample. The nematicidal substance emamectin benzoate as a control group was dissolved in an aqueous solution containing 10% methanol to 20 mg/ml, followed by trunk injection.

[4] = tested on: Bursaphelenchus xylophilus; assay: Pine wilt disease field tests, Pinus densiflora adult trees aged 15 years (Example 9); details: for Disease severity (%): adult trees, JCK-1398 = 50-fold diluted spray-dried powder foliar spray, EB = A-Pharm trunk injection; for Control value (%): foliar spray, EB by trunk injection
Experimental: Based on the above results, the field test was additionally performed using Pinus densiflora adult trees aged 15 years (root diameter: 8-11 cm, height: 6-8 m) in order to investigate the control effect of the Bacillus subtilis JCK-1398 strain against pine wilt disease in adult trees. The field test was performed twice in 2018 (first field test) and 2019 (second field test). In the first field test, a spray-dried powder of a culture of the JCK-1398 strain (prepared by the same method as in Example 8) was used, and in the second field test, a spray-dried powder of a culture of the JCK-1398 strain was formulated into JCK-1398 20% SC (emulsion) before use. The JCK-1398 20% SC formulation was formulated with a composition of a JCK-1398 spray-dried powder (20.0%), CR-NF 135B (4.5%), xanthan gum (0.03%), a defoamer (0.1%), and water (75.37%).
The spray-dried powder of the culture of the JCK-1398 strain and the JCK-1398 20% SC formulation were diluted 50-fold and 2000-fold, respectively, in an aqueous solution containing 250 μg/ml Tween® 20, and then placed in a sprayer, and each pine tree was foliar-sprayed with about 1 L of each diluted solution. The treatment by foliar spraying was performed twice at an interval of 1 month. One week after each second treatment, each pine tree was inoculated, by trunk injection, with Bursaphelenchus xylophilus at 20,000 nematodes in the first field test and at 10,000 nematodes in the second field test. For a control group, A-Pharm (emamectin benzoate 2.15%, emulsion, Syngenta) was applied at 1 ml per diameter at breast by trunk injection, and the A-Pharm was applied once 1 week before the inoculation with Bursaphelenchus xylophilus. The untreated group was treated with only 250 μg/ml Tween@ 20 without chemical agents in the same manner. The results are shown in FIGS. 7A to 7C and Tables 13 and 14.

In the case of `CCn1cc(C(=O)O)c(=O)c2cc3c(cc21)OCO3` [Oxolinic acid, oxolinic acid], the “Control value (%)” value ([1]; Folia spraying) is reported as 27.1%.

For `CN(C)[C@@H]1C(O)=C(C(N)=O)C(=O)[C@@]2(O)C(O)=C3C(=O)c4c(O)cccc4[C@@](C)(O)[C@H]3[C@H](O)[C@@H]12` [Oxytetracyclin, oxytetracycline], the “Control value (%)” value ([1]; Soil drenching) was 20.8%.

With emamectin benzoate [EB] the “Control value (%)” value [2] was 100.0%, the “Control value (%)” value [3] was 97.0% and the “Disease severity (%)” value ([4]; 1 Month after inoculation) was 0%. The “Disease severity (%)” value ([4]; 2 Months after inoculation) was 1%, the “Disease severity (%)” value ([4]; 3 Months after inoculation) was 2.5% and the “Disease severity (%)” value ([4]; 4 Months after inoculation) was 7.5%. For the same molecule, the “Disease severity (%)” value ([4]; 5 Months after inoculation) was 7.5%, the “Disease severity (%)” value ([4]; 6 Months after inoculation) was 10% and the “Control value (%)” value ([4]; 2018-Year field test, powder 50-fold diluted, 20,000 nematodes) was 86.2%. The “Control value (%)” value ([4]; 2019-Year field test, 20% SC 2000-fold diluted, 10,000 nematodes) was 75%.
